Experiment [1] deals with protein p140. The experiment is described as follows: Effects of various test compounds on p140 phosphorylation in rat L6 cells. The experiment is classed as cell-based. Set-up: dose or concentration left out as unconfirmed.
Description: Rat L6 cells (1×10^5 cells/dish) were incubated in the Dulbecco's modified Eagle's medium (containing 10% BFS) at 37° C. under 5% CO2 atmosphere for 8 days. The cells used were skeletal muscle myoblast-differentiated muscle cells. After treating the differentiated skeletal muscle cells in serum-free Dulbecco's modified Eagle's media for 4 hr, various test compounds (10 mM; except insulin,1 mM) were added before the cultures were further incubated for a fixed interval. After the cultures were rinsed with ice-cold phosphate buffer, cells were lysed with phosphate buffer containing 0.5% octa (ethylene glycol) ether (C12E8). The pp140 was recovered by cephalobeads bound with phosphotyrosine antibody (Transformation Corp.) prior to elution and detection with phenyl phosphate and western blotting method, respectively. The band content of pp140 was determined by a densitometer using purified pp140 as the standard.
The next experiment deals with Rat L6 cells. The experiment in a line: Enhancement activity on glucose uptake (3H-2-deoxyglucose) in rat L6 cells. Type of experiment: cell-based. The conditions noted are these: 2 hr, 5 mM 3H-2-deoxyglucose, initial 3 min.
The test system of experiment [2] is streptozotocin (STZ)-induced diabetic rats. The experiment in a line: Effects of vitamin K5 on diabetes in streptozotocin (STZ) rats. The experiment is classed as in vivo, rat. The conditions noted are these: vitamin K5 i.p. once daily for 3 consecutive days. On the procedure:
The diabetes model using streptozotocin (STZ) was established in male Wistar rats (STZ rats). After administering various intraperitoneal (i.p.) daily doses of vitamin K5 for 3 consecutive days in STZ rats (one administration per day), the glucose, neutral fat and cholesterol contents in blood were determined. Accordingly, STZ and normal rats were administered with the vehicle (physiological saline) at identical daily rate and duration prior to determination of similar hematic indices mentioned above. In addition, rats administered subcutaneously (s.c.) with insulin (8 U/kg) daily (one administration per day) for 3 consecutive days were used as positive controls.

In experiment [3] the test system is protein p140. The experiment in a line: Tyrosine phosphorylation of p140 in rat L6 cells (anti-phosphotyrosine recovery, western blot, densitometry). The conditions noted are these: for p140 tyrosine phosphorylation (band content of pp140): rat L6 cells, amylin 100 pM 24 hr before insulin where added. The experiment is classed as cell-based. On the procedure:
(§1) Using the Dubecco's modified Eagle's medium (containing 10% BFS), various cells (1×10^5 cells/dish) were incubated at 37° C. under 5% CO2 atmosphere for 5˜8 days. The cells were skeletal muscle cells differentiated from skeletal muscle myoblasts. The differentiated cells previously treated in serum-free Dulbecco's modified Eagle's medium for 4 hr was incubated with and without amylin (100 pM) before further incubation for 24 hr. Cultures treated with insulin (100 nM) thereafter were incubated for a fixed interval (10 or 60 min). After the cultures were rinsed with ice-cold phosphate buffer, cells were lysed with phosphate buffer containing 0.5% octa (ethylene glycol) ether (C12E8). The pp140 was recovered by sepharobeads bound with phosphothyrosine antibody (Transformation Corp.) prior to elution and detection with phenyl phosphate and western blotting method, respectively. The band content of pp140 was determined by a densitometer using purified pp140 as the standard. In the Table 1, cultures were treated with amylin (100 pM) 24 hr before insulin (100 nM) was added.

The subject of experiment [4] is protein p140. The experiment is described as follows: Tyrosine phosphorylation of p140 in rat FaO hepatocytes. Type of experiment: cell-based. The conditions noted are these: for p140 tyrosine phosphorylation (band content of pp140): rat FaO cells, amylin 100 pM 24 hr before insulin where added. The method, then: as §1
In experiment [5] the test system is protein p140. The experiment in a line: Tyrosine phosphorylation of p140 in human A673 muscle cells. Type of experiment: cell-based. The conditions noted are these: for p140 tyrosine phosphorylation (band content of pp140): human A 678 cells, amylin 100 pM 24 hr before insulin where added. On the procedure: as §1
Experiment [6] relates to protein p140. The experiment is described as follows: Tyrosine phosphorylation of p140 in human HepG2 hepatocytes. The experiment is classed as cell-based. The conditions noted are these: for p140 tyrosine phosphorylation (band content of pp140): human HepG2 cells, amylin 100 pM 24 hr before insulin where added.
The test system of the next experiment is healthy rats. The experiment is described as follows: Amylin administration to healthy rats for 7 days. Type of experiment: in vivo, rat. The conditions noted are these: amylin 0.1 mg/kg, i.p., t.i.d. From the text:
(§2) These observations were accompanied by decreases in both incidences, glucose transporter 4 (Glut 4) quantity and synthesized glycogen content (less than 50% decrease compared to that of control group) with 1.7-fold increase in the blood glucose content.

For a further experiment, the system named is L6 cells. The experiment is described as follows: Glucose uptake in L6 cells with amylin administration. The experiment is classed as cell-based. The conditions noted are these: L6 cells of rat skeletal muscle myoblasts.
Description: as §2

Turning to `CC(C)CCOc1ccc(C=C2SC(=S)NC2=O)cc1` [5-(4-isoamyloxybenzylidene)rhodanine], the “Amount of tyrosine phosphorylated p140” value in the experiment with protein p140 [1] (0 min) is on record as 400 copy/cell; with protein p140 [1] (3 min), 3200 copy/cell; in the experiment on protein p140 [1] (10 min), 2250 copy/cell; in the experiment with protein p140 [1] (60 min), 1600 copy/cell. Moreover, in the experiment with Rat L6 cells, the “Activity on glucose uptake” value stood at 98.4 pmol/mg protein/min.

In the case of `O=C1NC(=S)SC1c1ccccc1` (stereo not shown) [5-phenylrhodanine], the “Amount of tyrosine phosphorylated p140” value in the experiment on protein p140 [1] (0 min) was 350 copy/cell; in the experiment with protein p140 [1] (3 min), 1600 copy/cell; in the experiment with protein p140 [1] (10 min), 1250 copy/cell; in the experiment on protein p140 [1] (60 min) it was 650 copy/cell. In addition, the “Activity on glucose uptake” value in the experiment with Rat L6 cells came out at 76.8 pmol/mg protein/min.

As to `CC1=CC(=O)c2ccccc2C1=O` [Vitamin K3, 2-methyl-1,4-naphthoquinone], the “Amount of tyrosine phosphorylated p140” value in the experiment with protein p140 [1] (0 min) was 350 copy/cell; with protein p140 [1] (3 min), 3650 copy/cell; in the experiment on protein p140 [1] (10 min), 1800 copy/cell; in the experiment with protein p140 [1] (60 min) it was 750 copy/cell. Besides, the “Activity on glucose uptake” value in the experiment on Rat L6 cells is 60.9 pmol/mg protein/min.

On to `Cc1cc(N)c2ccccc2c1O` [Vitamin K5, 4-amino-2-methyl-1-naphthol], for which the “Amount of tyrosine phosphorylated p140” value in the experiment on protein p140 [1] (0 min) is listed as 400 copy/cell; in the experiment on protein p140 [1] (3 min) it was 3850 copy/cell; in the experiment with protein p140 [1] (10 min), 2850 copy/cell; in the experiment with protein p140 [1] (60 min) it was 1600 copy/cell. In addition, the “Activity on glucose uptake” value in the experiment on Rat L6 cells is recorded as 67.5 pmol/mg protein/min. For the same compound, the “cholesterol content in blood” value in experiment [2] is given as “elicited recovery of changes”. Moreover, the “glucose content in blood” value in experiment [2] is “elicited recovery of changes”. The “neutral fat content in blood” value in experiment [2] was “elicited recovery of changes”.

For Insulin, the “p140 tyrosine phosphorylation (band content of pp140)” value with protein p140 [3] (insulin 100 nM for 10 min) was 2400; with protein p140 [3] (insulin 100 nM for 60 min) it was 1000; with protein p140 [4] (insulin 100 nM for 10 min) it was 2000; in the experiment with protein p140 [4] (insulin 100 nM for 60 min) it was 1400; in the experiment on protein p140 [5] (insulin 100 nM for 10 min) it was 2500; in the experiment on protein p140 [5] (insulin 100 nM for 60 min), 1900. Besides, the “p140 tyrosine phosphorylation (band content of pp140)” value in the experiment on protein p140 [6] (insulin 100 nM for 10 min) is 2100; in the experiment with protein p140 [6] (insulin 100 nM for 60 min), 1200. Moreover, the “Amount of tyrosine phosphorylated p140” value amounted to 350 copy/cell in the experiment on protein p140 [1] (0 min), 1850 copy/cell in the experiment with protein p140 [1] (3 min), 2600 copy/cell with protein p140 [1] (10 min) and 1650 copy/cell in the experiment with protein p140 [1] (60 min). In the experiment on Rat L6 cells, the “Activity on glucose uptake” value was found to be 106.8 pmol/mg protein/min.

With amylin, in the experiment with protein p140 [3] (rat L6 cells incubated with insulin within 10 min), the “Effect on insulin-induced incidence of pp140” value (shortened to “Effect”) is on record as “antagonized”. In the experiment on protein p140 [4] (rat hepatocytes, FaO cells), the “Effect” value was “similarly confirmed”. Also, the “Effect” value with protein p140 [5] (human muscle cells (A673 cells)) is given as “similarly confirmed”. Also, the “Effect” value in the experiment on protein p140 [6] (human hepatocytes (HepG2 cells)) was “similarly confirmed”. Besides, in the experiment on healthy rats, the “glucose transporter 4 (Glut 4) quantity” value is “decreases”, the “increase in the blood glucose content” value amounted to 1.7 fold, the insulin receptor population entry is listed as “dramatic decreases” and the secreted insulin quantity result is “dramatic decreases”. In the experiment with healthy rats, the “synthesized glycogen content, decrease compared to control group” value is recorded as “less than 50%”. Besides, in the experiment with L6 cells, the “glucose uptake in the cells” value is on record as “decreased glucose uptake”.

Source of the values: patent publication US6432913B1, “Polypeptide of protein p140 and DNAs encoding it” (Ono Pharmaceutical Co., Ltd., priority 1993, dated 2002).
